Source: patent US11786492B2, “Therapeutic agent for phosphodiesterase inhibition and its related disorders” (Novalead Pharma Inc, priority 2017, dated 2023)

Key:
Human IL-22 = assay: IL-22 release from stimulated PBMCs, ELISA; type: cell-based; details: PMA+Ionomycin, 18 hrs
Procedure: (§1) Fresh human blood from healthy volunteer was collected in anticoagulant (5 mM) ethylene diamine tetra acetic acid (EDTA) containing tubes. The growth medium used was RPMI-1640 medium (with 3% FBS) and incubated at 37° C. for 60 mins in a 5% CO2 incubator with vehicle used as 1% DMSO. The cell viability was checked at various time points using Alamar blue and fluorescence readings were taken at excitation of 544 nm and emission of 590 nm.
(§2) PBMCs were stimulated with different stimulators as follows: • a. Cells were exposed to stimulator LPS at 100 ng/mL for 18 hrs to stimulate TNF-α, IL-6, IFN-γ, IL10, IL-1β • b. Cells were exposed to stimulator IFN-γ+LPS at 100 ng/mL+1 μg/mL for 18 hrs to stimulate IL-12 • c. Cells were exposed to stimulator PMA+Ionomycin at 50 ng/mL+1 μg/mL for 18 hrs to stimulate IL-23, IL-22, IL-17A, IL-17F
(§3) After 18 hrs supernatants were collected and centrifuged to remove any cell debris and aliquots were used for ELISA.

Human IL-6 = assay: IL-6 release from stimulated PBMCs, ELISA; type: cell-based; details: LPS 100 ng/mL, 18 hrs
Procedure: as §1, §2, §3

TNF-α = TNF-α release from stimulated HaCaT cells, ELISA; type: cell-based, human; details: IFN-γ 50 ng/mL, 48 hrs
Procedure: (§4) HaCaT cells were maintained in T-75 cm2 flask in Dulbecco's modified Eagle medium supplemented with FBS (10%), L-glutamine (2 mM), penicillin (100 ug/ml), streptomycin (100 ug/ml) at 37° C. in 5% CO2 incubator. Cell growth was maintained to 70-80% confluence for seeding and vehicle used was 1% DMSO. The cell viability was checked at various time points using Alamar blue and fluorescence readings were taken at excitation of 544 nm and emission of 590 nm.
(§5) HaCaT cells were stimulated with different stimulators as follows: • a. Cells were exposed to stimulator LPS at 1 μg/mL for 48 hrs to stimulate IL-1β • b. Cells were exposed to stimulator IFN-γ at 50 ng/mL for 48 hrs to stimulate TNF-α, IL-6
(§6) After 48 hrs supernatants were collected and centrifuged to remove any cell debris and aliquots were used for ELISA.

HaCaT cells = assay: Keratinocyte (HaCaT) proliferation, MTT assay; type: cell-based, human
Procedure: An experiment to check keratinocyte proliferation inhibitory activity of selected compounds of Formula-I was performed to establish its application in skin disorders related to keratinocyte hyper-proliferation. HaCaT cells, a human immortalized cell line derived from keratinocytes, representing hyper-proliferating keratinocytes was investigated for anti-proliferative potential of the selected compounds by MTT assay.

Human TNF-α = assay: TNF-α release from stimulated PBMCs, ELISA; type: cell-based; details: LPS 100 ng/mL, 18 hrs
Procedure: as §1, §2, §3

Human IL-17A = assay: IL-17A release from stimulated PBMCs, ELISA; type: cell-based; details: PMA+Ionomycin, 18 hrs
Procedure: as §1, §2, §3

Human IL-17F = assay: IL-17F release from stimulated PBMCs, ELISA; type: cell-based; details: PMA+Ionomycin, 18 hrs
Procedure: as §1, §2, §3

Human IL-1β = assay: IL-1β release from stimulated PBMCs, ELISA; type: cell-based; details: LPS 100 ng/mL, 18 hrs
Procedure: as §1, §2, §3

PDE1A = PDE1A (Homo sapiens, UniProt P54750); assay: Fluorescence polarization assay PDE1A; type: biochemical; details: substrate cGMP, Ca-CaM
Procedure: (§7) An experiment to check inhibition of various subtypes of the target Phosphodiesterase (PDE) enzyme in in-vitro assay was performed. […] PDE1A, PDE2A, PDE4A, PDE4B, PDE4C, PDE4D, PDE5A, PDE7A, PDE9A, PDE10A.

IL-6 = IL-6 release from stimulated HaCaT cells, ELISA; type: cell-based, human; details: IFN-γ 50 ng/mL, 48 hrs
Procedure: as §4, §5, §6

Human IL-10 = assay: IL-10 release from stimulated PBMCs, ELISA; type: cell-based; details: LPS 100 ng/mL, 18 hrs
Procedure: as §1, §2, §3

Human IL-12 = assay: IL-12 release from stimulated PBMCs, ELISA; type: cell-based; details: IFN-γ+LPS, 18 hrs
Procedure: as §1, §2, §3

PDE2A = PDE2A (Homo sapiens, UniProt O00408); assay: Fluorescence polarization assay PDE2A; type: biochemical; details: substrate cGMP
Procedure: as §7

PDE4B = PDE4B (Homo sapiens, UniProt Q07343); assay: Fluorescence polarization assay PDE4B; type: biochemical; details: substrate cAMP
Procedure: as §7

Human IFN-γ = assay: IFN-γ release from stimulated PBMCs, ELISA; type: cell-based; details: LPS 100 ng/mL, 18 hrs
Procedure: as §1, §2, §3

Chain of PDE4B (Q07343 whole entry, species assumed): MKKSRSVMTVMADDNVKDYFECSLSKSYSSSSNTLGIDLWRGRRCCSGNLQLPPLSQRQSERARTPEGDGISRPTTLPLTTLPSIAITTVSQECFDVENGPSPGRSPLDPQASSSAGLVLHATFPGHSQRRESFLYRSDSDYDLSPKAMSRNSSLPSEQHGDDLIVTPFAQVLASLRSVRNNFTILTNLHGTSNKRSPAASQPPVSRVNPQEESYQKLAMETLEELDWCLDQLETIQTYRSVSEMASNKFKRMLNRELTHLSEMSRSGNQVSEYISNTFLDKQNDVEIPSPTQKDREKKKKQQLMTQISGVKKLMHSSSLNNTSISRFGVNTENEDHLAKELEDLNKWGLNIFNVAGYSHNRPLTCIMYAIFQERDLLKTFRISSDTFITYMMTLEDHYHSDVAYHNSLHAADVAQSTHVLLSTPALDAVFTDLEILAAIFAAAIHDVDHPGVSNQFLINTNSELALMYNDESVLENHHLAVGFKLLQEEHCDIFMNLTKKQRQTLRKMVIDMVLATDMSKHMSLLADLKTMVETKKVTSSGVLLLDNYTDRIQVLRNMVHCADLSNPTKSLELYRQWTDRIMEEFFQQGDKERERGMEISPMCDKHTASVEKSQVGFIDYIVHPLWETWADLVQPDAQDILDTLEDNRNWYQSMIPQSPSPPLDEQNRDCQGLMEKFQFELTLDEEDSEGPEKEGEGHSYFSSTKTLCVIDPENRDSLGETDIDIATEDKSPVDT
Chain of PDE1A (P54750 whole entry, species assumed): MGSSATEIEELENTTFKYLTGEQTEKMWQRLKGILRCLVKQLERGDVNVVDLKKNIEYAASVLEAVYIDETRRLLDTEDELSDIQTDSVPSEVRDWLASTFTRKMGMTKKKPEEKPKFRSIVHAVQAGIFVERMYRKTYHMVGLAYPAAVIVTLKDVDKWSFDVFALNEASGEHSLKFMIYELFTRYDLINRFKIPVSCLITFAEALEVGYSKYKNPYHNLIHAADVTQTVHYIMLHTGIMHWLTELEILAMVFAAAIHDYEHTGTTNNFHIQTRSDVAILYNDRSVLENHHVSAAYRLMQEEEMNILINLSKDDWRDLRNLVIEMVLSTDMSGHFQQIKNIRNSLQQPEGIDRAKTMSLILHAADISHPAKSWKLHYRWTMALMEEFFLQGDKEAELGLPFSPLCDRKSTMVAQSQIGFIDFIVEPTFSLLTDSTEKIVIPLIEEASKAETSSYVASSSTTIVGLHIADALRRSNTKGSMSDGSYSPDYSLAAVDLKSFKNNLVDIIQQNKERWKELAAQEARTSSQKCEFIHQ
Chain of PDE2A (O00408 whole entry, species assumed): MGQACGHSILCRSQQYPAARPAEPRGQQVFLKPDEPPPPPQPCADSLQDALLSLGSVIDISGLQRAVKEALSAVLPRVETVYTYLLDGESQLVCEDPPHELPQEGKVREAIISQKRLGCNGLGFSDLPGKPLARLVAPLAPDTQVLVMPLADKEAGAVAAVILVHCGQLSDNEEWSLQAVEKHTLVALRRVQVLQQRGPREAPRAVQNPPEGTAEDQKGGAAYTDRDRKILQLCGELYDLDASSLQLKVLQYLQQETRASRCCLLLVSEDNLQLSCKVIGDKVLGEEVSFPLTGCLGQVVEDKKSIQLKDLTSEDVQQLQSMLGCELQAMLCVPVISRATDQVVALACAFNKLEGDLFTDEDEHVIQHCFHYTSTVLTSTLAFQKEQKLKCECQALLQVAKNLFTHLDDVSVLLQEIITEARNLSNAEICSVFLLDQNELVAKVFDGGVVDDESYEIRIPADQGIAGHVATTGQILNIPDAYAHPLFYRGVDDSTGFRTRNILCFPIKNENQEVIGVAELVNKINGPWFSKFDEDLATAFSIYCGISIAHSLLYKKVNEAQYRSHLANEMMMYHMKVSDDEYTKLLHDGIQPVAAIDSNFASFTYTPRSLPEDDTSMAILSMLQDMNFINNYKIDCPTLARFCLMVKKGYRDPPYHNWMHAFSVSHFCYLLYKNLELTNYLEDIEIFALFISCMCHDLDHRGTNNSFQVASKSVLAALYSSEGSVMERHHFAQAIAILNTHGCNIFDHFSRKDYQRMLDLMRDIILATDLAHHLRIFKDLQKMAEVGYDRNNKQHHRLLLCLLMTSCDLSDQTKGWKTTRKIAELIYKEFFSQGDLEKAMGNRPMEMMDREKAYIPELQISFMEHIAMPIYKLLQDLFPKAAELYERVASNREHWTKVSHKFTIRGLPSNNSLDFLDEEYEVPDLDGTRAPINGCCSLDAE

Q: Which “Human IL-22 concentration” value (Human IL-22; 1 μM) does the source give for CC(=O)Oc1ccccc1C(=O)Nc1ncc([N+](=O)[O-])s1 [Nitazoxanide] here?
A: 5612 pg/mL

Q: What about the “Human IL-22 concentration” value (Human IL-22; 10 μM) of the same compound?
A: 1093 pg/mL

Q: What about the “Human IL-22 concentration” value (Human IL-22; 25 μM) of the same compound?
A: 228 pg/mL

Q: What about the “Human IL-22 concentration” value (Human IL-22; 50 μM) of the same compound?
A: 0 pg/mL

Q: What about the “Human IL-6 concentration” value (Human IL-6; 1 μM) of the same compound?
A: 5520 pg/mL

Q: What about the “Human IL-6 concentration” value (Human IL-6; 10 μM) of the same compound?
A: 5342 pg/mL

Q: What about the “Human IL-6 concentration” value (Human IL-6; 25 μM) of the same compound?
A: 3567 pg/mL

Q: And the “Human IL-6 concentration” value (Human IL-6; 50 μM)?
A: 2531 pg/mL

Q: What about the “TNF-α Conc.” value (TNF-α; 0.1 μM) of the same compound?
A: 3 ± 0.2 pg/mL

Q: What about the “TNF-α Conc.” value (TNF-α; 0.5 μM) of the same compound?
A: 2.5 ± 0.5 pg/mL

Q: What about the “TNF-α Conc.” value (TNF-α; 1 μM) of the same compound?
A: 2.3 ± 0.4 pg/mL

Q: And the “Cell proliferation (% of Control)” value (HaCaT cells; 0.01 μM, 24 h)?
A: 126.3 % of Control

Q: And the “Cell proliferation (% of Control)” value (HaCaT cells; 0.01 μM, 48 h)?
A: 113.7 % of Control

Q: What about the “Cell proliferation (% of Control)” value (HaCaT cells; 0.01 μM, 72 h) of the same compound?
A: 114.6 % of Control

Q: And the “Cell proliferation (% of Control)” value (HaCaT cells; 0.1 μM, 24 h)?
A: 114.3 % of Control

Q: What about the “Cell proliferation (% of Control)” value (HaCaT cells; 0.1 μM, 48 h) of the same compound?
A: 115.2 % of Control

Q: And the “Cell proliferation (% of Control)” value (HaCaT cells; 0.1 μM, 72 h)?
A: 102.4 % of Control

Q: And the “Cell proliferation (% of Control)” value (HaCaT cells; 0.5 μM, 24 h)?
A: 120.3 % of Control

Q: What about the “Cell proliferation (% of Control)” value (HaCaT cells; 0.5 μM, 48 h) of the same compound?
A: 113.4 % of Control

Q: And the “Cell proliferation (% of Control)” value (HaCaT cells; 0.5 μM, 72 h)?
A: 106.2 % of Control

Q: What about the “Cell proliferation (% of Control)” value (HaCaT cells; 1 μM, 24 h) of the same compound?
A: 123 % of Control

Q: What about the “Cell proliferation (% of Control)” value (HaCaT cells; 1 μM, 48 h) of the same compound?
A: 110.8 % of Control

Q: And the “Cell proliferation (% of Control)” value (HaCaT cells; 1 μM, 72 h)?
A: 101.7 % of Control

Q: What about the “Cell proliferation (% of Control)” value (HaCaT cells; 5 μM, 24 h) of the same compound?
A: 121.6 % of Control

Q: What about the “Cell proliferation (% of Control)” value (HaCaT cells; 5 μM, 48 h) of the same compound?
A: 91.8 % of Control

Q: What about the “Cell proliferation (% of Control)” value (HaCaT cells; 5 μM, 72 h) of the same compound?
A: 82.9 % of Control

Q: And the “Cell proliferation (% of Control)” value (HaCaT cells; 10 μM, 24 h)?
A: 103.8 % of Control

Q: And the “Cell proliferation (% of Control)” value (HaCaT cells; 10 μM, 48 h)?
A: 77 % of Control

Q: And the “Cell proliferation (% of Control)” value (HaCaT cells; 10 μM, 72 h)?
A: 69.5 % of Control

Q: And the “Cell proliferation (% of Control)” value (HaCaT cells; 50 μM, 24 h)?
A: 92.6 % of Control

Q: And the “Cell proliferation (% of Control)” value (HaCaT cells; 50 μM, 48 h)?
A: 69.6 % of Control

Q: And the “Cell proliferation (% of Control)” value (HaCaT cells; 50 μM, 72 h)?
A: 49.6 % of Control

Q: What about the “Cell proliferation (% of Control)” value (HaCaT cells; 100 μM, 24 h) of the same compound?
A: 89.7 % of Control

Q: And the “Cell proliferation (% of Control)” value (HaCaT cells; 100 μM, 48 h)?
A: 61 % of Control

Q: And the “Cell proliferation (% of Control)” value (HaCaT cells; 100 μM, 72 h)?
A: 33.1 % of Control

Q: And the IC50 (HaCaT cells; Homo sapiens, HaCaT, 72 h, read-out: IC50 of cell proliferation)?
A: 39.9 µM

Q: And the “Human TNF-α concentration” value (Human TNF-α; 1 μM)?
A: 5708 pg/mL

Q: What about the “Human TNF-α concentration” value (Human TNF-α; 10 μM) of the same compound?
A: 3472 pg/mL

Q: What about the “Human TNF-α concentration” value (Human TNF-α; 25 μM) of the same compound?
A: 3679 pg/mL

Q: And the “Human TNF-α concentration” value (Human TNF-α; 50 μM)?
A: 2896 pg/mL

Q: And the “Human IL-17A concentration” value (Human IL-17A; 1 μM)?
A: 39 pg/mL

Q: What about the “Human IL-17A concentration” value (Human IL-17A; 10 μM) of the same compound?
A: 0 pg/mL

Q: What about the “Human IL-17A concentration” value (Human IL-17A; 25 μM) of the same compound?
A: 0 pg/mL

Q: What about the “Human IL-17A concentration” value (Human IL-17A; 50 μM) of the same compound?
A: 0 pg/mL

Q: What about the “Human IL-17F concentration” value (Human IL-17F; 1 μM) of the same compound?
A: 166 pg/mL

Q: What about the “Human IL-17F concentration” value (Human IL-17F; 10 μM) of the same compound?
A: 0 pg/mL

Q: And the “Human IL-17F concentration” value (Human IL-17F; 25 μM)?
A: 0 pg/mL

Q: And the “Human IL-17F concentration” value (Human IL-17F; 50 μM)?
A: 0 pg/mL

Q: What about the “Human IL-1β concentration” value (Human IL-1β; 1 μM) of the same compound?
A: 4470 pg/mL

Q: What about the “Human IL-1β concentration” value (Human IL-1β; 10 μM) of the same compound?
A: 3971 pg/mL

Q: What about the “Human IL-1β concentration” value (Human IL-1β; 25 μM) of the same compound?
A: 3203 pg/mL

Q: What about the “Human IL-1β concentration” value (Human IL-1β; 50 μM) of the same compound?
A: 2506 pg/mL

Q: What about the IC50 (PDE1A) of the same compound?
A: 137 µM

Q: What about the “IL-6 Conc.” value (IL-6; 0.1 μM) of the same compound?
A: 83 ± 1 pg/mL

Q: What about the “IL-6 Conc.” value (IL-6; 0.5 μM) of the same compound?
A: 79 ± 4 pg/mL

Q: What about the “IL-6 Conc.” value (IL-6; 1 μM) of the same compound?
A: 70 ± 4 pg/mL

Q: And the “Human IL-10 concentration” value (Human IL-10; 1 μM)?
A: 1799 pg/mL

Q: What about the “Human IL-10 concentration” value (Human IL-10; 10 μM) of the same compound?
A: 512 pg/mL

Q: What about the “Human IL-10 concentration” value (Human IL-10; 25 μM) of the same compound?
A: 76 pg/mL

Q: And the “Human IL-10 concentration” value (Human IL-10; 50 μM)?
A: 42 pg/mL

Q: What about the “Human IL-12 concentration” value (Human IL-12; 1 μM) of the same compound?
A: 3892 pg/mL

Q: What about the “Human IL-12 concentration” value (Human IL-12; 10 μM) of the same compound?
A: 1500 pg/mL

Q: What about the “Human IL-12 concentration” value (Human IL-12; 25 μM) of the same compound?
A: 406 pg/mL

Q: And the “Human IL-12 concentration” value (Human IL-12; 50 μM)?
A: 101 pg/mL

Q: What about the IC50 (PDE2A) of the same compound?
A: 67.5 µM

Q: And the IC50 (PDE4B)?
A: > 500 µM

Q: What about the “Human IFN-γ concentration” value (Human IFN-γ; 1 μM) of the same compound?
A: 217 pg/mL

Q: What about the “Human IFN-γ concentration” value (Human IFN-γ; 25 μM) of the same compound?
A: 152 pg/mL

Q: What about the “Human IFN-γ concentration” value (Human IFN-γ; 50 μM) of the same compound?
A: 191 pg/mL
